Article PMC6934184, “Selective DNA-PKcs inhibition extends the therapeutic index of localized radiotherapy and chemotherapy” (The Journal of Clinical Investigation, 2019)

Molecular target: T1, CAMK2B (CaMKII beta) (Homo sapiens, UniProt Q13554)
T1 construct: purchased Thermo Fisher Scientific (Life Technologies) SelectScreen
Assay: SelectScreen Z'LYTE
Type: biochemical
Outline: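 NU5455 was profiled across the SelectScreen Broad panel of kinase activity and binding assays. Z'LYTE reactions such as CSF1R ran at apparent Km ATP, while the Adapta CAMK1 assay used ATP listed as 10. Values are given as percent.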

T1 sequence (Q13554 whole entry): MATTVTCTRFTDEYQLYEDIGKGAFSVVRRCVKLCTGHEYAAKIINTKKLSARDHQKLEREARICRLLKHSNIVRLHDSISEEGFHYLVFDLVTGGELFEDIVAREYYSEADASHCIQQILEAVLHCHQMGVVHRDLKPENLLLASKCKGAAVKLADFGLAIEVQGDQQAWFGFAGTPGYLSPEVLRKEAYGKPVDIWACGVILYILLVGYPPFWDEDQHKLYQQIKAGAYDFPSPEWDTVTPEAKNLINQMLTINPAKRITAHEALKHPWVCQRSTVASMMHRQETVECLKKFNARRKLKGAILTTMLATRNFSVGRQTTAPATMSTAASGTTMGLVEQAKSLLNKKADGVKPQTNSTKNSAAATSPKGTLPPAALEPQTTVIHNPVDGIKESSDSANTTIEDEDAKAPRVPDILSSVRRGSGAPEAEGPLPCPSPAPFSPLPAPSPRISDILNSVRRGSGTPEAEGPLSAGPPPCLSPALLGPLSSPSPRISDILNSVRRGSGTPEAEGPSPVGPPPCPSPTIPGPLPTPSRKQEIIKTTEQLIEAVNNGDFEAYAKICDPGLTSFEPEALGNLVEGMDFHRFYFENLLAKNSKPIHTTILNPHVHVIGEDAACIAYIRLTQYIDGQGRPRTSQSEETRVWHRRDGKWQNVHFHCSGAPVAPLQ

Q: `CN(C(=O)CN1CCOCC1)c1ccc2sc3c(-c4cccc5c(=O)cc(N6CC7CCC(C6)O7)oc45)cccc3c2c1` [NU5455] was tested. Which inhibition at 1 µM did it give?
A: 0.7%
